Results taken from paper PMC3904261 (British Journal of Pharmacology, 2013).
Bridge positions count the residues as written; N and C are the ends. Ends that are not written are not given here.

What was measured:
CGRP receptor [1] = target: T1, CGRP receptor (Homo sapiens, UniProt O60894+Q16602); experiment: Displacement of 125I-CGRP binding to SK-N-MC cell membranes; set-up: relative expression levels of the receptors (endogenous vs. overexpressed); endogenous in cells; host or cells: SK-N-MC cells (ECACC clone; ATCC clone for [Cys5]-CGRP); details: 125I-CGRP binding, SK-N-MC membranes; listed as [Cys^5]-CGRP
T1 sequence (Q16602 23-461): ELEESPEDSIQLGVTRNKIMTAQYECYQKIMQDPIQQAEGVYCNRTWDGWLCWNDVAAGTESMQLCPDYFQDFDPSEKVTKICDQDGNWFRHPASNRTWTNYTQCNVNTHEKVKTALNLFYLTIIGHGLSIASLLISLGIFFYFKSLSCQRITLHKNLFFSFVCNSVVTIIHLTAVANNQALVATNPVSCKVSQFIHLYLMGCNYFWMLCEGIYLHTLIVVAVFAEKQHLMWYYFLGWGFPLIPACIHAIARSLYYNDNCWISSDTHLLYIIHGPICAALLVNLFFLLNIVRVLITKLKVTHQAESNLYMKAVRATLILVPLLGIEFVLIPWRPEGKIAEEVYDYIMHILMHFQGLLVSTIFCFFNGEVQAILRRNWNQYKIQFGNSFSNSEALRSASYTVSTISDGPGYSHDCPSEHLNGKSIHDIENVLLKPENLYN
T1 sequence (O60894 27-148): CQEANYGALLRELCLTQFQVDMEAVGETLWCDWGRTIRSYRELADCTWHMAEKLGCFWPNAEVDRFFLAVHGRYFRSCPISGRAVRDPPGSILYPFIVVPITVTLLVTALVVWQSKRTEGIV
Description: (§1) GraphPad Prism 5.00 or 6.00 (GraphPad Software Inc., San Diego, CA, USA) was used for data fitting. Concentration–response curves were fitted to a sigmoidal function with Hill slope constrained to unity to obtain pEC50 and maximum responses (Emax) values. Displacement curves were analysed to obtain pIC50 values. Schild plots were fitted by linear regression to obtain slope and intercepts. pEC50 and pIC50 values were compared with that of human αCGRP using Dunnett's test with either a normal or repeated measures one-way ANOVA, as appropriate.

CGRP receptor [2] = target: T1, CGRP receptor; experiment: β-arrestin 2 translocation in CHO-K1 cells (PathHunter eXpress); type: cell-based; set-up: host or cells: CHO-K1 (PathHunter eXpress β-arrestin kit)
Description: as §1

CGRP receptor [3] = target: T1, CGRP receptor; experiment: Antagonism of CGRP-stimulated cAMP production in SK-N-MC cells; type: cell-based; set-up: relative expression levels of the receptors (endogenous vs. overexpressed); endogenous in cells; host or cells: SK-N-MC cells (ECACC clone; ATCC clone for [Cys5]-CGRP)
Description: (§2) Production of cAMP in SK-N-MC cells for all analogues except [[…]]-hαCGRP was by a radioreceptor assay, as described previously (Poyner et al., [1998]). […] For [[…]]-hαCGRP, a different clone of SK-N-MC cells was used and cAMP production was measured via AlphaScreen (Perkin Elmer, Wellesley, MA, USA), as described previously ([…] et al., [2010]). This assay was also used to investigate the action of all derivatives at the AMY1(a) receptor and other experiments using Cos 7 cells. […] GraphPad Prism 5.00 or 6.00 (GraphPad Software Inc., San Diego, CA, USA) was used for data fitting. Concentration-response curves were fitted to a sigmoidal function with Hill slope constrained to unity to obtain pEC50 and maximum responses (Emax) values. Displacement curves were analysed to obtain pIC50 values. Schild plots were fitted by linear regression to obtain slope and intercepts. pEC50 and pIC50 values were compared with that of human αCGRP using Dunnett's test with either a normal or repeated measures one-way ANOVA, as appropriate.

AMY1(a) receptor = target: T2, AMY1(a) receptor (Homo sapiens, UniProt O60894+P30988); experiment: cAMP production in Cos 7 cells via the AMY1(a) receptor; type: cell-based
T2 construct: HA; expressed in transfected cells; host or cells: Cos 7
T2 sequence (P30988 25-474): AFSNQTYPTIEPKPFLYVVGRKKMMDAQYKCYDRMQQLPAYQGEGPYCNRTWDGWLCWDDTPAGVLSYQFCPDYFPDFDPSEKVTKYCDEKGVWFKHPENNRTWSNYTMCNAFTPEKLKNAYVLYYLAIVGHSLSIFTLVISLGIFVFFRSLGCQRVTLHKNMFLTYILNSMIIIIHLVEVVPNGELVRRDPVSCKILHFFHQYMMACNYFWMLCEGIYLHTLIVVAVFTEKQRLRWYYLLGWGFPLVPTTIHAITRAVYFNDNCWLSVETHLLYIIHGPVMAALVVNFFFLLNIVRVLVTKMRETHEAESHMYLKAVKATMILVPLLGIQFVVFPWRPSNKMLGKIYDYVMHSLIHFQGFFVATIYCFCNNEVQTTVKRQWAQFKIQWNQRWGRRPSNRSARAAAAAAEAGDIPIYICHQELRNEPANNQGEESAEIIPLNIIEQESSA
T2 sequence (O60894 27-148): as the sequence (O60894 27-148) above
Description: as §2, with “SK-N-MC cells were grown in DMEM/F12 medium supplemented with 10% fetal calf serum as described previously (Poyner et al., [1998]). […] Production” for “Production”

CGRP receptor [4] = target: T1, CGRP receptor; experiment: cAMP production in SK-N-MC cells; type: cell-based; set-up: relative expression levels of the receptors (endogenous vs. overexpressed); endogenous in cells; host or cells: SK-N-MC cells (ECACC clone; ATCC clone for [Cys5]-CGRP)
Description: as §2

CGRP receptor [5] = target: T1, CGRP receptor; experiment: cAMP production in Cos 7 cells transfected with CLR and RAMP1; type: cell-based; set-up: relative expression levels of the receptors (endogenous vs. overexpressed); endogenous in cells; host or cells: SK-N-MC cells (ECACC clone; ATCC clone for [Cys5]-CGRP); details: read-out: Emax, % of that of CGRP, AlphaScreen
Description: as §2, with “SK-N-MC cells were grown in DMEM/F12 medium supplemented with 10% fetal calf serum as described previously (Poyner et al., [1998]). […] Production” for “Production”

[6] = tested on: porcine iris ciliary body; details: ref Heino et al., 1998; cited from earlier work
From the text: Similarly, substitution of Thr-6 ...

[7] = 2 h stimulation, means ± SEM, n = 3, listed as [Cys^6]
[8] = AlphaScreen, means ± SEM, n = 3–6, listed as [Cys^6]
[9] = radioreceptor assay, approx. 10 min, means ± SEM, n = 3–6, listed as [Cys^6]

| Molecule | decrease in affinity compared with CGRP (CGRP receptor [1]) [fold] | β-Arrestin (CHO-K1) Emax (% CGRP) CGRP analogue (CGRP receptor [2]; [7]) | β-Arrestin (CHO-K1) pEC50 CGRP analogue (CGRP receptor [2]; [7]) | Emax (CGRP receptor [2]; CHO-K1, CHO-K1 cells, compared with CGRP, read-out: reduction of Emax, β-arrestin 2 translocation) [%] | decrease in potency for β-arrestin 2 translocation compared with CGRP (CGRP receptor [2]; CHO-K1 cells) | stimulation of β-arrestin 2 translocation (CGRP receptor [2]; CHO-K1 cells, [Asp6] and [Lys6] at concentrations of up to 1 μM) | slope of Schild plot (CGRP receptor [3]; listed as [Cys^5]-CGRP) | slope of Schild plot (CGRP receptor [3]; listed as [Cys^6]-CGRP) | fold less potent than CGRP, cAMP at AMY1(a) receptor (AMY1(a) receptor) [fold] | stimulation of cAMP production at AMY1(a) receptor (AMY1(a) receptor) | AMY1(a) receptor-stimulated cAMP Emax (% CGRP) CGRP analogue (AMY1(a) receptor; [8]) | AMY1(a) receptor-stimulated cAMP pEC50 CGRP analogue (AMY1(a) receptor; [8]) | decrease in potency on cAMP compared with CGRP (CGRP receptor [4]; SK-N-MC cells) | stimulation of cAMP production (CGRP receptor [4]; SK-N-MC cells, [Asp6] and [Lys6] at concentrations of up to 10 μM) | cAMP (SK-N-MC) Emax (% CGRP) CGRP analogue (CGRP receptor [4]; [9]) | cAMP (SK-N-MC) pEC50 CGRP analogue (CGRP receptor [4]; [9]) | Emax (CGRP receptor [5]) [%] | stimulation of cAMP production [6] |
| --- | --- | --- | --- | --- | --- | --- | --- | --- | --- | --- | --- | --- | --- | --- | --- | --- | --- | --- |
| CC(C)C[C@H](NC(=O)CNC(=O)[C@H](C)NC(=O)[C@H](CC(C)C)NC(=O)[C@H](CCCNC(=N)N)NC(=O)[C@H](Cc1c[nH]cn1)NC(=O)[C@@H](NC(=O)[C@@H](NC(=O)[C@@H]1CSSC[C@H](NC(=O)[C@@H](N)CS)C(=O)N[C@@H](CC(=O)O)C(=O)N[C@@H]([C@@H](C)O)C(=O)N[C@@H](C)C(=O)N[C@@H]([C@@H](C)O)C(=O)N1)C(C)C)[C@@H](C)O)C(=O)N[C@@H](CC(C)C)C(=O)N[C@@H](CO)C(=O)N[C@@H](CCCNC(=N)N)C(=O)N[C@@H](CO)C(=O)NCC(=O)NCC(=O)N[C@H](C(=O)N[C@H](C(=O)N[C@@H](CCCCN)C(=O)N[C@@H](CC(N)=O)C(=O)N[C@@H](CC(N)=O)C(=O)N[C@@H](Cc1ccccc1)C(=O)N[C@H](C(=O)N1CCC[C@H]1C(=O)N[C@H](C(=O)N[C@@H](CC(N)=O)C(=O)N[C@H](C(=O)NCC(=O)N[C@@H](CO)C(=O)N[C@@H](CCCCN)C(=O)N[C@@H](C)C(=O)N[C@@H](Cc1ccccc1)C(N)=O)C(C)C)[C@@H](C)O)C(C)C)C(C)C)C(C)C [[Cys^1]] | > 270 | Undetectable | Undetectable | 45 | ninefold | unable to stimulate | 1.33 ± 0.30 | 0.98 ± 0.20 | 75 | no consistent stimulations | Undetectable | Undetectable | over 100 fold | unable to stimulate | Undetectable | Undetectable | 90 ± 8 | – |
| [Val^6]-CGRP: CGRP analogue substituted at position 6, from Heino et al., 1998 (ACDTAVCVTHRLAGLLSRSGGVVKNNFVPTNVGSKAF-NH2; disulfide 2-7; ends not checked; UniProt P06881 83-119, looked up, variant T6V) | – | – | – | – | – | – | – | – | – | – | – | – | – | – | – | – | – | inactive |
